Measured values as given in BindingDB's records for doi:10.1016/j.ejmech.2014.06.037 (The Second People'S Hospital of Fujian Provinc, 2014).

Molecular target: Tumor necrosis factor (Homo sapiens, UniProt P01375)
Experiment: Binding affinity to TNF-alpha (unknown origin)

Tumor necrosis factor, sequence (P01375 whole entry): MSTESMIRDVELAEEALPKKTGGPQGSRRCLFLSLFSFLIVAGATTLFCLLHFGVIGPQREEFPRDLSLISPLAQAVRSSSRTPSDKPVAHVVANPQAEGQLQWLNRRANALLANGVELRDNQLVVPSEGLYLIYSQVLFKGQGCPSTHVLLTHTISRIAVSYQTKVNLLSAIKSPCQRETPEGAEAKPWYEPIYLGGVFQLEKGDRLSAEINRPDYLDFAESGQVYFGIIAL

Structure (SMILES): C[C@H](CC(=O)C[C@@H](C)[C@H]1C[C@@H](O)[C@@]2(C)C3=C(C(=O)C[C@@]12C)[C@@]1(C)CCC(=O)C(C)(C)[C@H]1C[C@@H]3O)C(=O)O
- Kd: 8 nM
